Our source for the GI50 and TGI values is PubChem BioAssay (NCI).

Structures are written as SMILES. Where “and” joins values, the source holds several entries; their conditions need not be identical. Identical values can stand only once.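 Following 48 hours of exposure in 96-well plates, responses at five concentrations were used to interpolate endpoints linearly. GI50: concentration for 50% inhibition of growth. Definition used: TGI = concentration required for complete inhibition of growth.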

Among the test systems are DU-145 prostate; SN12C renal; T-47D breast; OVCAR-4 ovarian; MDA-MB-231 breast; HCT-15 colon; UO-31 renal; NCI-H460 lung; NCI/ADR-RES ovarian; KM12 colon.
Common to all, as to experiment: inhibition of tumour cell growth, NCI panel, 48 h

In the case of `CN(C)CCCN1c2ccccc2CCc2ccc(Cl)cc21`, the GI50 with DU-145 prostate is 10.8 µM; in the experiment on SN12C renal, 3.26 µM; with T-47D breast, 3.26 µM; with OVCAR-4 ovarian it was 3.64 µM; in the experiment on MDA-MB-231 breast it was 3.06 µM; in the experiment with HCT-15 colon, 3.35 µM. The GI50 is 5.17 µM in the experiment with UO-31 renal, 4.46 µM in the experiment on NCI-H460 lung, 3.33 µM in the experiment with NCI/ADR-RES ovarian and 3.77 µM with KM12 colon. The TGI in the experiment with DU-145 prostate is 23.1 µM; with SN12C renal it was 16.3 µM; in the experiment with T-47D breast, 10.6 µM; with OVCAR-4 ovarian, 16.4 µM; in the experiment with MDA-MB-231 breast, 12 µM; in the experiment on HCT-15 colon, 12.1 µM. For the same compound, the TGI amounted to 19.7 µM in the experiment with UO-31 renal, 19.1 µM in the experiment on NCI-H460 lung, 14.8 µM in the experiment with NCI/ADR-RES ovarian and 13.6 µM with KM12 colon.
On to `C[C@]12CCC3[C@@H](CC[C@@H]4c5nonc5CC[C@]34C)C1CCC(=O)N2` (some centres undefined), for which the GI50 with DU-145 prostate, in the experiment with T-47D breast, in the experiment on MDA-MB-231 breast and with NCI/ADR-RES ovarian was greater than 100 µM in each case. Also, the TGI in the experiment with DU-145 prostate, in the experiment on SN12C renal, in the experiment with T-47D breast, in the experiment on OVCAR-4 ovarian, in the experiment on MDA-MB-231 breast and with HCT-15 colon was greater than 100 µM each time. Besides, the TGI with UO-31 renal, in the experiment with NCI-H460 lung, with NCI/ADR-RES ovarian and with KM12 colon was greater than 100 µM in each case.
In the case of `CN(C)c1ccc2c(c1)Sc1cc(N(C)C)ccc1N2C(=O)c1ccccc1`, the GI50 with DU-145 prostate was greater than 100 µM; in the experiment on SN12C renal it was greater than 100 µM; with T-47D breast, 35.2 µM; with OVCAR-4 ovarian, 44.6 µM; in the experiment on MDA-MB-231 breast it was 64.2 µM; in the experiment on HCT-15 colon, 59.2 µM. Besides, the GI50 was 8.23 µM with UO-31 renal, 20.5 µM with NCI-H460 lung, 33.7 µM with NCI/ADR-RES ovarian and 31.6 µM with KM12 colon. Besides, the TGI in the experiment on DU-145 prostate, in the experiment on SN12C renal, in the experiment with T-47D breast, in the experiment with OVCAR-4 ovarian, in the experiment with MDA-MB-231 breast and with HCT-15 colon was greater than 100 µM each time. For the same compound, the TGI with UO-31 renal, with NCI-H460 lung, in the experiment with NCI/ADR-RES ovarian and in the experiment on KM12 colon was greater than 100 µM throughout.
Take `Cc1ccc(C(=O)Nc2cccc(C(F)(F)F)c2)cc1Nc1nc(-c2cccnc2)nc2c1cnn2C`: the GI50 in the experiment with DU-145 prostate was 5.5 µM and 3.09 µM; in the experiment with SN12C renal, 2.45 µM and 1.7 µM; in the experiment on T-47D breast, 3.44 µM and 1.86 µM; with OVCAR-4 ovarian, 4.56 µM and 2.59 µM; in the experiment with MDA-MB-231 breast, 0.769 µM and 0.348 µM; in the experiment with HCT-15 colon, 2.65 µM and 1.63 µM. Further, the GI50 was 1.08 µM and 0.477 µM in the experiment on UO-31 renal; 2.84 µM and 2.54 µM in the experiment with NCI-H460 lung; 2.19 µM and 1.54 µM in the experiment on NCI/ADR-RES ovarian; 2.62 µM and 0.686 µM with KM12 colon. In addition, the TGI is 26.7 µM and > 10 µM with DU-145 prostate; 13.8 µM and > 10 µM with SN12C renal; 16.3 µM and 8.72 µM in the experiment with T-47D breast; 30.3 µM and > 10 µM in the experiment with OVCAR-4 ovarian; 3.21 µM and 3.95 µM with MDA-MB-231 breast; 4.94 µM in the experiment on HCT-15 colon. Further, the TGI in the experiment on UO-31 renal was 8.99 µM and 5.11 µM; in the experiment with NCI-H460 lung, 12.5 µM and 7.19 µM; with NCI/ADR-RES ovarian, 6.96 µM and 5.68 µM; with KM12 colon, 17.2 µM and 8.28 µM.
With `Clc1cc(Cl)c(OCC#CI)cc1Cl`, the GI50 was 3.01 µM with DU-145 prostate; 10.1 µM in the experiment with SN12C renal; 1.22 µM in the experiment on T-47D breast; 13.5 µM in the experiment on MDA-MB-231 breast; 5.02 µM with HCT-15 colon; 15.5 µM in the experiment on NCI-H460 lung. Moreover, the GI50 with NCI/ADR-RES ovarian is 2.79 µM; with KM12 colon, 13.9 µM. In addition, the TGI with DU-145 prostate is 10 µM; in the experiment with SN12C renal, 23 µM; with T-47D breast, 3.01 µM; with MDA-MB-231 breast, 28 µM; in the experiment with HCT-15 colon, 23.5 µM; with NCI-H460 lung, 30.9 µM. For the same compound, the results for the TGI in the experiment with NCI/ADR-RES ovarian and in the experiment with KM12 colon were 9.66 µM and 27.5 µM, respectively.
For `C=CCOC1OC(CO[Si](C)(C)C(C)(C)C)C(OCc2ccccc2)C(OCc2ccccc2)C1OCc1ccccc1` (centres undefined), the TGI in the experiment on DU-145 prostate, with SN12C renal, in the experiment on T-47D breast, in the experiment with OVCAR-4 ovarian, in the experiment on HCT-15 colon and in the experiment with UO-31 renal was greater than 100 µM throughout. For the same compound, the TGI in the experiment with NCI-H460 lung, with NCI/ADR-RES ovarian and in the experiment on KM12 colon was greater than 100 µM each time.
On to `O=C(/C(=C/c1ccc([N+](=O)[O-])cc1)c1ccccc1)c1ccccc1`, for which the GI50 in the experiment with DU-145 prostate was 3.17 µM; with T-47D breast it was 3.13 µM; with OVCAR-4 ovarian, 3.57 µM; with MDA-MB-231 breast, 3.16 µM; in the experiment with HCT-15 colon, 2.85 µM; in the experiment on NCI-H460 lung it was 2.34 µM. The GI50 in the experiment on NCI/ADR-RES ovarian is 3.23 µM; in the experiment with KM12 colon, 3.06 µM. The TGI in the experiment on DU-145 prostate is greater than 100 µM; in the experiment on T-47D breast, greater than 100 µM; in the experiment on OVCAR-4 ovarian, greater than 100 µM; in the experiment with MDA-MB-231 breast, greater than 100 µM; in the experiment with HCT-15 colon it was greater than 100 µM; in the experiment on NCI-H460 lung, 5.93 µM. For the same compound, the figures for the TGI in the experiment on NCI/ADR-RES ovarian and in the experiment with KM12 colon were greater than 100 µM and 9.52 µM, respectively.
`COc1cccc(C=Nc2cc(C)ccn2)c1O.COc1cccc(C=Nc2cc(C)ccn2)c1O.[Cu]`: the GI50 was 19.3 µM in the experiment on DU-145 prostate; 19 µM in the experiment on SN12C renal; 12 µM in the experiment with T-47D breast; 25.4 µM in the experiment on OVCAR-4 ovarian; 23.2 µM with MDA-MB-231 breast; 11.9 µM in the experiment with HCT-15 colon. For the same compound, the values for the GI50 with NCI-H460 lung, with NCI/ADR-RES ovarian and in the experiment on KM12 colon were 18.3 µM, 19.1 µM and 18.5 µM, respectively. In addition, the TGI in the experiment with DU-145 prostate was 41.6 µM; in the experiment with SN12C renal it was 50.4 µM; with T-47D breast, 33.1 µM; in the experiment with OVCAR-4 ovarian it was greater than 100 µM; in the experiment with MDA-MB-231 breast it was 50.4 µM; in the experiment with HCT-15 colon, 36 µM. Further, the figures for the TGI with NCI-H460 lung, with NCI/ADR-RES ovarian and in the experiment with KM12 colon were 44 µM, 68.3 µM and 52.5 µM, respectively.
As for `CS(=O)(=O)c1ccc(C(=O)Nc2ccc(Cl)c(-c3ccccn3)c2)c(Cl)c1`, the TGI is greater than 100 µM in the experiment with DU-145 prostate; > 100 µM and 51.3 µM with SN12C renal; > 100 µM and 12.1 µM with T-47D breast; greater than 100 µM in the experiment with OVCAR-4 ovarian; > 96.2 µM and 15.7 µM in the experiment on MDA-MB-231 breast; > 100 µM and 21.2 µM with HCT-15 colon. For the same compound, the TGI in the experiment on UO-31 renal was > 42.6 µM and 27 µM; in the experiment with NCI/ADR-RES ovarian, > 100 µM and 25.7 µM; in the experiment on KM12 colon, > 100 µM and 10.2 µM. Besides, the GI50 was 29.7 µM with OVCAR-4 ovarian; 12.1 µM and 3.66 µM in the experiment with UO-31 renal.
